Source: US20150313897A1, “METHODS FOR TREATING PARKINSON'S DISEASE” (Teva Pharmaceuticals International GmbH, priority 2009, published 2015)
Entries after “also recorded” stand apart in the source; their conditions may differ.

Key:
Type in all cases: in vivo, rhesus monkeys
MPTP treated monkeys [1] = assay: Activity monitoring system (AMS), 12-hour light/dark cycle
Procedure: (§1) In the Experimentation Phase, the monkeys were assigned to one of three treatment groups: Group 1—oral ropinirole TID using the mean lowest effective dose determined in the Dose Finding Phase. Group 2—NP201 releasing ropinirole at a dose of either approximately 1/9th or 1/18th of the total daily oral TID dose), e.g., for a single 1.00 mg/kg oral dose, the daily dose would be 3.00 mg/kg/day and the implant doses would then be 0.33 mg/kg/day or 0.17 mg/kg/day, respectively. Group 3—Control group will receive both a subcutaneous placebo implant and an oral placebo TID.
The activity monitoring system (“AMS”) records a 12-hour light/dark cycle. Each monkey was fitted with a monkey jacket that contained an activity monitor (Actitrac 1M Systems, Baltimore, Md.) in the inside back pocket. This activity monitor measured motion along its vertical and horizontal axes digitizing acceleration signals at a 40 Hertz sampling rate and stored the average acceleration value calculated during each consecutive time interval. The number of pulses was expressed for a pre-selected time period (1 minute). Data was collected continuously in 1-minute bins for a period of to 14 days. At the end of the period, the monkeys were again tranquilized with ketamine (15 mg/kg, intramuscularly), the activity monitor was removed and interfaced with a computer, and the data was downloaded. The data was expressed as the mean activity of each 12-hour light/dark cycle.

MPTP treated monkeys [2] = assay: Clinical Rating Scale (CRS) in primate model of Parkinson's Disease; conditions: NP201 at 1/9th of the oral dose; p<0.05
Procedure: In the MPTP Induction Phase, the monkeys were made bilaterally Parkinsonian with the use of MPTP. Monkeys received an initial dose of 0.3 mg/kg MPTP through a unilateral intracarotid injection and twice weekly injections of 0.3 mg/kg intravenous (i.v.) MPTP until they achieve a score of between 7.0 and 20.5 (e.g., 12 or higher) on the clinical rating scale with moderate bilateral Parkinsonism. Intravenous MPTP is administered at 3-5 day intervals. The actual cumulative number of i.v. MPTP injections is determined by the onset of stable bilateral symptoms. This protracted time course of i.v. MPTP administration allowed for development and evaluation of new Parkinsonian symptoms following each MPTP administration. […]
In the Experimentation Phase, the monkeys were assigned to one of three treatment groups: Group 1—oral ropinirole TID using the mean lowest effective dose determined in the Dose Finding Phase. […]
A Clinical Rating Scale for neurobehavioral examination was used to assess the clinical status of the monkeys under; normal, MPTP, and MPTP+treatment conditions, once per week, according to previously published protocols. […] Subjects were assessed once per week. All groups were assessed one hour after dosing. […] Occurrence of dyskinesia, psychological disturbances and vomiting were also recorded.

[3] = Ropinirole plasma levels (PK) after NP201 implant or TID oral ropinirole; conditions: oral ropinirole group relative to NP201
Procedure: as §1
In order to collect Pharmacokinetic (“PK”) samples, monkeys were tranquilized with ketamine (7-10 mg/kg intramuscularly) in order to collect 1 cc of blood from the saphenous vein. Plasma samples were collected into appropriately labeled collection tubes. One cc blood samples were collected by catheter or venipuncture into EDTA collection tubes for ropinirole plasma concentrations by a validated HPLC with MS/MS detection. The plasma samples were frozen within two hours after collection and remained frozen until analyzed. PK Samples for the Dose Finding Phase (Oral dose) were drawn on days 1 and 14 at 60, 120, 180, 240 and 360 minutes after one oral dose of 1.0 mg/kg. PK Samples for the Experimentation Phase (NP201 implants) were drawn in all […] test groups in order to test the blood levels of ropinirole. […]

variability of plasma levels [3]: much greater variability
Structure (SMILES): CCCN(CCC)CCc1cccc2c1CC(=O)N2 [oral ropinirole, 4-(2-di-n-propylaminoethyl)-2(3H)-indolone]
activity levels, Sat-Sun (weekend) (MPTP treated monkeys [1]; days 10-42, versus pre-MPTP baseline and placebo, no active oral agent given on weekend days): resembled placebo with reduced activity relative to baseline; also recorded: indistinguishable from placebo
activity levels, Wed-Fri (MPTP treated monkeys [1]; days 10-42, versus pre-MPTP baseline, oral: peak about 1 hour after each dose during wake cycle): exceeded baseline, pre-MPTP levels
overall pattern of activity (12-hour light/dark cycles) (MPTP treated monkeys [1]; versus pre-MPTP baseline / healthy monkeys): alternating periods of very high activity interspersed with normal levels; also recorded: alternating periods of very high and normal activity
CRS measure versus placebo (MPTP treated monkeys [2]): statistically superior to placebo
